Test results from patent US8710233B2 (Gruenenthal GmbH, priority 2005, dated 2014).

Columns and labels:
[1] = target: T1, vanilloid receptor (VR1) (Homo sapiens, UniProt Q8NER1); assay: FLIPR Ca2+ influx assay on CHO K1 cells transfected with the VR1 gene (pharmacological method II); assay type: cell-based; details: table 4; capsaicin; read-out: Ki (human) Cap.
T1 construct: expressed in transfected cells; host or cells: CHO K1 cells (ECACC), stably transfected
Description: In this FLIPR assay, the influx of Ca^2+ is quantified with the assistance of a Ca^2+-sensitive dye (type Fluo-4, Molecular Probes Europe BV, Leiden, Netherlands) in a Fluorescent Imaging Plate Reader (FLIPR, Molecular Devices, Sunnyvale, USA) as described below.
II. Functional Investigations on the Vanilloid Receptor (VR1)
The agonistic or antagonistic action of the substances to be investigated on the vanilloid receptor (VR1) may also be determined with the following assay. According to this assay, the influx of Ca^2+ through the channel is quantified with the assistance of a Ca^2+-sensitive dye (type Fluo-4, Molecular Probes Europe BV, Leiden, Netherlands) in a Fluorescent Imaging Plate Reader (FLIPR, Molecular Devices, Sunnyvale, USA).
Chinese hamster ovary cells (CHO K1 cells, European Collection of Cell Cultures (ECACC), Great Britain) are stably transfected with the VR1 gene. For functional investigations, these cells are plated out onto poly-D-lysine-coated, black 96 well plates with a clear bottom (BD Biosciences, Heidelberg, Germany) at a density of 25,000 cells/well. The cells are incubated overnight at 37° C. and 5% CO2 in a culture medium (Ham's Nutrient Mixture F12, 10 vol. % FCS (foetal calf serum), 18 μg/mL L-proline). On the following day, the cells are incubated with Fluo-4 (Fluo-4 2 μM, Pluronic F127 0.01 vol. %, Molecular Probes in HBSS (Hank's buffered saline solution), Gibco Invitrogen GmbH, Karlsruhe, Germany) for 30 minutes at 37° C. The plates are then washed 3 times with HBSS buffer and, after a further 15 minutes' incubation at room temperature, used for […] measurement in the FLIPR. […] Quantification proceeds by measuring the highest fluorescence intensity (FC, fluorescence counts) over time.
The FLIPR protocol comprises 2 additions of substance. The substances to be tested (10 μM) are firstly pipetted onto the cells and Ca^2+ influx is compared with the control (capsaicin 10 μM) (% activation relative to the Ca^2+ signal after addition of 10 μM of capsaicin). After 5 minutes' incubation, 100 nM of capsaicin are added and the influx of Ca^2+ is again determined.
The percentage inhibition in comparison with the maximum achievable inhibition with 10 μM capsaicin is calculated.

[2] = target: VR1/TRPV1 receptor (Homo sapiens, UniProt Q8NER1); assay: IC50 (human) after pH stimulus; assay type: cell-based; details: for IC50: table 4
VR1/TRPV1 receptor, sequence (Q8NER1 whole entry): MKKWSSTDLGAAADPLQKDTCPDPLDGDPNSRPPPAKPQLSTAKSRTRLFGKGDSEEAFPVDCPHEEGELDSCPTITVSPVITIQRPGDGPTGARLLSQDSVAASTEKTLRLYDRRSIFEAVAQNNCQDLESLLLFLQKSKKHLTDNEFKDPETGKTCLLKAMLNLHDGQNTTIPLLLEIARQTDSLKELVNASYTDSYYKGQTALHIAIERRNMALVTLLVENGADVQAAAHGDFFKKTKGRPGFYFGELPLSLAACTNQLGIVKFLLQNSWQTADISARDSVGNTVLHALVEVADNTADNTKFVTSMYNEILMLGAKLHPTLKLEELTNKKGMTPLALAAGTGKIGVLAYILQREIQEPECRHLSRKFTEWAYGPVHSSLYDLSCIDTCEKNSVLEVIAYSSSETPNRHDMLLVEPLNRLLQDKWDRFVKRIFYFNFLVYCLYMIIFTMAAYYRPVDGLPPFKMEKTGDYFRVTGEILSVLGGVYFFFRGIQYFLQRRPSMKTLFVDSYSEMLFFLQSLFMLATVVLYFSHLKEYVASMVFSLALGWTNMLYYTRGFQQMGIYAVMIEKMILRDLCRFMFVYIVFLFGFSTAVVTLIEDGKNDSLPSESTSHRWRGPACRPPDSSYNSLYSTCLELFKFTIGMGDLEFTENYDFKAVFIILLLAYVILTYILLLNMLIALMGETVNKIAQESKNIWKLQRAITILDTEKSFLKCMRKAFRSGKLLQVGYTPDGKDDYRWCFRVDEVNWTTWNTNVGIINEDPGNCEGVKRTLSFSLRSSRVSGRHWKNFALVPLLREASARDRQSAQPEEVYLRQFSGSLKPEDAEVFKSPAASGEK

[3] = read-out: inhibition in percent, IC50 (human) after pH stimulus
[4] = @ 1 μM, ne = no effect, read-out: inhibition in percent, IC50 (human) after pH stimulus

T1 sequence (Q8NER1 whole entry): as above

Compound	Ki [1] [nM]	IC50 [2] [nM]	further results
CC(C(=O)NCc1ccc(C(F)(F)F)cc1-c1ccc(C(C)(C)C)cc1)c1ccc(NS(C)(=O)=O)c(F)c1 (centres unmarked) [Example 320, N-(4′-tert-butyl-5-trifluoromethyl-biphenyl-2-ylmethyl)-2-(3-fluoro-4-methylsulfonamido-phenyl)-propionamide]	1.1	36	
CC(C(=O)NCc1ccc(C(F)(F)F)nc1CCc1ccc(F)cc1)c1ccc(NS(C)(=O)=O)c(F)c1 (centres unmarked) [Example 303, 2-(3-fluoro-4-methylsulfonamido-phenyl)-N-{2-[2-(4-fluoro-phenyl)-ethyl]-6-trifluoromethyl-pyridin-3-ylmethyl}-propionamide]	1.8	76.2	
COc1ccc(-c2cc(C(F)(F)F)ccc2CNC(=O)C(C)c2ccc(NS(C)(=O)=O)c(F)c2)cc1 (centres unmarked) [Example 321, 2-(3-fluoro-4-methylsulfonamido-phenyl)-N-(4′-methoxy-5-trifluoromethyl-biphenyl-2-ylmethyl)-propionamide]	0.8	38	
CC(C)COc1nc(C(C)(C)C)ccc1CNC(=O)C(C)c1ccc(NS(C)(=O)=O)c(F)c1 (centres unmarked) [Example 353, N-(6-tert-butyl-2-isobutoxy-pyridin-3-ylmethyl)-2-(3-fluoro-4-methylsulfonamido-phenyl)-propionamide]	0.6		inhibition at 0.1 µM [2, 3]: 28%; inhibition at 1 µM [2, 4]: 25%
COc1ccc(-c2cc(C(F)(F)F)ccc2CNC(=O)C(C)c2ccc(NS(C)(=O)=O)c(F)c2)cc1OC (centres unmarked) [Example 325, N-(3′,4′-dimethoxy-5-trifluoromethyl-biphenyl-2-ylmethyl)-2-(3-fluoro-4-methylsulfonamido-phenyl)-propionamide]	8.6	716	
Cc1cc(C(F)(F)F)nc(OC2CCCC2)c1CNC(=O)C(C)c1ccc(NS(C)(=O)=O)c(F)c1 (centres unmarked) [Example 349]	44		inhibition in percent, IC50 (human) after pH stimulus ([2]; @ 1 μM, ne = no effect): ne @ 1 μM
CCOCCCOc1nc(C(F)(F)F)ccc1CNC(=O)C(C)c1ccc(NS(C)(=O)=O)c(F)c1 (centres unmarked) [Example 361, N-[2-(3-ethoxy-propoxy)-6-trifluoromethyl-pyridin-3-ylmethyl]-2-(3-fluoro-4-methylsulfonamido-phenyl)-propionamide]	9.7	462	
COc1nc(C(C)(C)C)ccc1CNC(=O)C(C)c1ccc(NS(C)(=O)=O)c(F)c1 (centres unmarked) [Example 372, N-((6-tert-butyl-2-methoxypyridin-3-yl)methyl)-2-(3-fluoro-4-(methylsulfonamido)phenyl)propanamide]	14.3		inhibition at 1 µM [2, 4]: 52%
CC(C(=O)NCc1ccc(C(F)(F)F)nc1N1CC=C(c2ccc(F)cc2)CC1)c1ccc(NS(C)(=O)=O)c(F)c1 (centres unmarked) [Example 332, 2-(3-fluoro-4-methylsulfonamido-phenyl)-N-[4-(4-fluoro-phenyl)-6′-trifluoromethyl-3,6-dihydro-2H-[1,2′]bipyridinyl-3′-ylmethyl]-propionamide]	2.4	159	
CCC/C=C\c1nc(C(F)(F)F)ccc1CNC(=O)C(C)c1ccc(NS(C)(=O)=O)c(F)c1 (centres unmarked) [Example 300, 2-(3-fluoro-4-methylsulfonamido-phenyl)-N-(2-pent-1-enyl-6-trifluoromethyl-pyridin-3-ylmethyl)-propionamide]	2.1	59.5	
CC(C(=O)NCc1ccc(C(C)(C)C)nc1N1CCCCCC1)c1ccc(NS(C)(=O)=O)c(F)c1 (centres unmarked) [Example 296, N-(2-azepan-1-yl-6-tert-butyl-pyridin-3-ylmethyl)-2-(3-fluoro-4-methansulfonylamino-phenyl)-propionamide]	0.9	154	
COc1cc(OC)cc(-c2cc(C(F)(F)F)ccc2CNC(=O)C(C)c2ccc(NS(C)(=O)=O)c(F)c2)c1 (centres unmarked) [Example 350, N-(3′,5′-dimethoxy-5-trifluoromethyl-biphenyl-2-ylmethyl)-2-(3-fluoro-4-methylsulfonamido-phenyl)-propionamide]	5.8		inhibition at 0.1 µM [2, 3]: 4%; inhibition at 1 µM [2, 4]: 52%
CC1CCN(c2nc(C(F)(F)F)ccc2CNC(=S)C(C)c2ccc(NS(C)(=O)=O)c(F)c2)CC1 (centres unmarked) [Example 293, 2-(3-fluoro-4-methylsulfonamido-phenyl)-N-(4-methyl-6′-trifluoromethyl-3,4,5,6-tetrahydro-2H-[1,2′]bipyridinyl-3′-ylmethyl)-thiopropionamide]	1.4	129	
CCCCCOc1nc(C(C)(C)C)ccc1CNC(=O)C(C)c1ccc(NS(C)(=O)=O)c(F)c1 (centres unmarked) [Example 328, N-(6-tert-butyl-2-pentyloxy-pyridin-3-ylmethyl)-2-(3-fluoro-4-methylsulfonamido-phenyl)-propionamide]	0.8	128	
CCCOc1nc(C(C)(C)C)ccc1CNC(=O)C(C)c1ccc(NS(C)(=O)=O)c(F)c1 (centres unmarked) [Example 369, N-((6-tert-butyl-2-propoxypyridin-3-yl)methyl)-2-(3-fluoro-4-(methylsulfonamido)phenyl)propanamide]	1.7	182	
C/C=C\COc1nc(C(F)(F)F)ccc1CNC(=O)C(C)c1ccc(NS(C)(=O)=O)c(F)c1 (centres unmarked) [Example 298, N-(2-but-2-enyloxy-6-trifluoromethyl-pyridin-3-ylmethyl)-2-(3-fluoro-4-methylsulfonamido-phenyl)-propionamide]	1.6	183	
CC1CCN(c2nc(C(F)F)ccc2CNC(=O)C(C)c2ccc(NS(C)(=O)=O)c(F)c2)CC1 (centres unmarked) [Example 315, N-(6′-difluoromethyl-4-methyl-3,4,5,6-tetrahydro-2H-[1,2′]bipyridinyl-3′-ylmethyl)-2-(3-fluoro-4-methylsulfonamido-phenyl)-propionamide]	1	295	
CC(C(=O)NCc1ccc(C(F)(F)F)nc1OCC1CCN(C(=O)OC(C)(C)C)CC1)c1ccc(NS(C)(=O)=O)c(F)c1 (centres unmarked) [Example 327, 4-(3-{[2-(3-fluoro-4-methylsulfonamido-phenyl)-propionylamino]-methyl}-6-trifluoromethyl-pyridin-2-yloxymethyl)-piperidine-1-carbonic acid tert-butyl ester]	3.4	342	
Cc1cc(-c2nc(C(F)(F)F)ccc2CNC(=O)C(C)c2ccc(NS(C)(=O)=O)c(F)c2)ccc1F (centres unmarked) [Example 278, 2-(3-fluoro-4-methylsulfonamido-phenyl)-N-[2-(4-fluoro-3-methyl-phenyl)-6-trifluoromethyl-pyridin-3-ylmethyl]-propionamide]	0.4	76	
COc1ccc(-c2nc(C(F)(F)F)ccc2CNC(=O)C(C)c2ccc(NS(C)(=O)=O)c(F)c2)cc1OC (centres unmarked) [Example 326, N-[2-(3,4-dimethoxy-phenyl)-6-trifluoromethyl-pyridin-3-ylmethyl]-2-(3-fluoro-4-methylsulfonamido-phenyl)-propionamide]	25.6		inhibition at 10 µM ([2]; @ 10 μM, read-out: inhibition in percent, IC50 (human) after pH stimulus): 66%
CC(C(=O)NCc1ccc(C(F)(F)F)cc1-c1cccnc1)c1ccc(NS(C)(=O)=O)c(F)c1 (centres unmarked) [Example 46, 2-(3-fluoro-4-(methylsulfonamido)phenyl)-N-(2-(pyridin-3-yl)-4-(trifluoromethyl)benzyl)propanamide]	59.4		inhibition at 5 µM ([2]; @ 5 μM, read-out: inhibition in percent, IC50 (human) after pH stimulus): 40%
CC/C=C\COc1nc(C(F)(F)F)ccc1CNC(=O)C(C)c1ccc(NS(C)(=O)=O)c(F)c1 (centres unmarked) [Example 299, 2-(3-fluoro-4-methylsulfonamido-phenyl)-N-(2-pent-2-enyloxy-6-trifluoromethyl-pyridin-3-ylmethyl)-propionamide]	1	43	
CC(C)COc1nc(C(F)(F)F)ccc1CNC(=O)[C@@H](C)c1ccc(NS(C)(=O)=O)c(F)c1 [Example 96, (S)-2-(3-fluoro-4-methylsulfonamido-phenyl)-N-(2-isobutoxy-6-trifluoromethyl-pyridin-3-ylmethyl)-propionamide]	0.5	30	
CC(C)Oc1nc(C(C)(C)C)ccc1CNC(=O)C(C)c1ccc(NS(C)(=O)=O)c(F)c1 (centres unmarked) [Example 374, N-((6-tert-butyl-2-isopropoxypyridin-3-yl)methyl)-2-(3-fluoro-4-(methylsulfonamido)phenyl)propanamide]	2.3	314	
